Source: patent US20240300987A1, “TRAP1 INHIBITOR AND USE THEREOF” (SMARTIN BIO INC., priority 2021, published 2024)
“Also recorded” adds a separate entry of the source.

What was measured:
OIR mice = test: Oxygen-induced retinopathy (OIR) model, CD31 whole-mount staining of retina; type: in vivo; details: intravitreal injection at P12 or eye drop administration P12 to P17
Text: As TRAP1+/+(wild-type), TRAP1+/−(hetero), and TRAP1−/− (knockout) experimental mice, Black6 J strain mice were used. On the 7th day after birth, a baby mouse and a mother mouse were placed in an in vivo chamber (Coy-lab) and supplied with high oxygen (75% O2). On the 12th day after birth, the baby mouse was taken out of the in vivo chamber. Then, a surrogate mother was put thereinto, and normal oxygen (21% O2) was supplied. Then, the eyeball of the baby mouse was removed on the 17th day after birth and used for experiments.
In the process of forming the in vivo oxygen-induced retinopathy (OIR) model, the baby mouse was treated with eye drops for 6 days, from the day when being taken out to normal oxygen after being supplied with high oxygen until the day their eyes were collected (on the 12th day to 17th day after birth). Treatment was performed three times a day at intervals of 4 hours. As a drug treatment method, Mito Q was diluted to a concentration of 1 mM in Liposic and dropped 10 uL into the eyes of the baby mouse. Then, the eyes were allowed to blink for 1 minute. After wiping the residual amount outside the eyeball with a cotton swab, the mouse was returned to the care of the mother mouse. […]

[1] = target: T1, human full-length TRAP1 protein (Homo sapiens, UniProt Q12931); test: Fluorescence polarization (FP) analysis using SB-TM2 probe (client-binding site); details: for IC50: FP analysis using SB-TM2; for Activity compared to that of SMX: TRAP1 binding, relative to SMX of the same table; for binding capacity compared to that of SMX (MitoQ): result in words
T1 construct: containing human full-length TRAP1 protein (400 nM); hexahistidine tag followed by TEV protease cleavage site (N, cleaved yes); made in house; host or cells: E. coli BL21 (DE3)
T1 sequence (Q12931 60-704): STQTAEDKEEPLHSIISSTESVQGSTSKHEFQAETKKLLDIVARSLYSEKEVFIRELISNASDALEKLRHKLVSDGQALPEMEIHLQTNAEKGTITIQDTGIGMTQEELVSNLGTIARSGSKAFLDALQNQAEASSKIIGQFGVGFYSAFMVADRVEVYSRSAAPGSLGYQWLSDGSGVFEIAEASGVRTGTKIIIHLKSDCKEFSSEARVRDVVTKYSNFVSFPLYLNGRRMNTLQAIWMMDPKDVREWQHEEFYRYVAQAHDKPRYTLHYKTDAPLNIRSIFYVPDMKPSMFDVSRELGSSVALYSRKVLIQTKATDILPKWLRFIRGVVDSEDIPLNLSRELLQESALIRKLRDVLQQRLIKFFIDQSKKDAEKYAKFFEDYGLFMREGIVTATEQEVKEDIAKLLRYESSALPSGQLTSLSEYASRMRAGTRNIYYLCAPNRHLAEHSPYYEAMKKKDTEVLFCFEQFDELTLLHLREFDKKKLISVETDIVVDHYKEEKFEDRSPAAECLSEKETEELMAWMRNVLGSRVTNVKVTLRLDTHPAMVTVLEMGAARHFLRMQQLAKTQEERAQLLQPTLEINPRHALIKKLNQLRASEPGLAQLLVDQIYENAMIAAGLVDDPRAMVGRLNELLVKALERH
Experimental: The substance to be analyzed (at a final volume of 100 μL) was added to FP buffer ([…], 2.7 mM KCl, 4.3 mM Na2HPO4, 1.4 mM KH2PO4 (pH 7.3), 1 mM DTT, 2 mM MgCl2, and 0.1 mg/mL BSA) containing human full-length TRAP1 protein (400 nM) and SB-TM2 probe (100 nM) and then reacted at room temperature for 1 hour (96-well plate). Using a SYNERGY NEO microplate reader, FP was measured at an excitation wavelength set to 440 nm and an emission wavelength set to 500 nm.

HIF1α = test: Drug activity assay using MIO-M1 HRE/GFP cell line under hypoxia; type: cell-based; details: for IC50: HIF1α inhibitory activity in MIO-M1 cells, 1% O2 24 hours; for Activity compared to that of SMX: HIF1α inhibition, relative to SMX of the same table
Experimental: After transfection (jetPRIME kit) of MIO-M1 Müller cells with 5HRE/GFP plasmid (Addgene, #46926), the cells transfected with the plasmid were selected using 1 mg/ml of G418 (Neomycin), a selectable marker. A stable cell line was constructed by selecting cells, growing in a colony form, from single cells. The prepared MIO-M1-HRE/GFP stable cell line was dispensed into a 96-well plate and treated with drugs at different concentrations the next day. After being exposed to a hypoxic environment (1% O2) for 24 hours, the GFP (Ex/Em: 488/507) fluorescence signal was measured using a SYNERGY NEO microplate reader (BioTek Instrument). The relative fluorescence value was calculated on the basis of 100% of the negative control group.

TRAP1 [2] = target: T2, TRAP1 (Homo sapiens, UniProt Q12931); test: ATPase activity assay (PiColorLock Gold Phosphate Detection Kit); type: biochemical; set-up: hexahistidine tag followed by TEV protease cleavage site (N, cleaved yes); made in house; host or cells: E. coli BL21 (DE3); details: result in words
T2 sequence (Q12931 60-704): T1 sequence (Q12931 60-704)
Experimental: The ATPase activity of TRAP1 was measured using the PiColorLock Gold Phosphate Detection Kit (Abcam). Then, 0.5 µM TRAP1 (wild-type or mutation) was pre-incubated along with inhibitors at various concentrations for 30 minutes and then incubated with 0.2 mM ATP at 37° C. for 3 hours in ATPase activity assay buffer containing 50 mM Tris-HCl, 20 mM KCl, and 6 mM MgCl (pH 7.4). Next, 20 µL of a mixture of a PiColorLock Gold reagent and an accelerator (100:1) was added to each sample (100 μL). After 5 minutes of incubation, 10 μL of a stabilizer was added to stop color development. Absorbance was measured at 620 nm using a microplate reader (Synergy NEO, BioTek). The background signal was normalized by subtracting the absorbance of unreacted samples.

22Rv1 cells = test: In vivo mouse xenograft; set-up: species or system mice; details: 3 mg/Kg intraperitoneally daily
Experimental: Immunodeficient athymic nude mice (male, 8 weeks old) were purchased from OrientBio. The mice were maintained in a pathogen-free facility (12-hour dark/light cycle) at the UNIST In Vivo Research Center and supplied with standard diet and water. All animal experiments were approved by UNIST ([…]-19-11). 22Rv1 cells (1×10^7) were injected subcutaneously into both sides of the nude mice. When the tumor size reached approximately 100 mm^3, 3 mg/Kg drugs (MitoQ, SB-U014, and SB-U015) and vehicle (DMSO) dissolved in 20% cremophor EL (Sigma) in PBS were administered intraperitoneally daily. The tumor volume was measured daily using an electronic caliper and calculated using the following equation: V=½× (width) 2× length. When the experiment was completed, animals were euthanized, and the tumor was collected for histology and western blot. Band intensities were quantified using ImageJ software (National Institute of Health, USA). In this case, western blot was performed in the same manner as described above.

TRAP1 [3] = target: T2, TRAP1; test: Protein expression analysis by western blot in 22Rv1 cells, TRAP1 inhibition markers; type: cell-based; set-up: endogenous in cells; host or cells: 22Rv1; details: 5 µM of each compound, 2 hours
Experimental: Human cancer cell line 22Rv1 was purchased from the American Type Culture Collection (ATCC) and maintained as recommended by the supplier. Briefly, cancer cells were incubated in a DMEM or RPMI medium (GIBCO) containing 10% fetal bovine serum (FBS; ATCC) and 1% penicillin/streptomycin (GIBCO) at 37° C. in a humidified atmosphere of 5% CO2. The cells were not incubated for more than 6 months.
The 22Rv1 cells were treated with 5 µM of each compound, cultured for 2 hours, and then analyzed by western blot.
Cell lysates were separated by SDS-PAGE and transferred to a PVDF membrane. The membrane was blocked with 10% skim milk in TBST (TBS containing 0.05% Tween-20) for 1 hour at room temperature and incubated with primary antibodies overnight at 4° C. The membrane was washed with TBST three times for 1 hour and incubated with secondary antibodies (1:5000) diluted in 10% skim milk in TBST for 1 hour. The membrane was washed with TBST three times and visualized using an enhanced chemiluminescence detection kit (BioRad).

[4] = 22Rv1 xenograft in nude mice, compared to DMSO
[5] = MIO-M1, 24 h, Table 6, alkyl-TPPs

Compound | TRAP1 ATPase activity with increasing concentration (TRAP1 [2]) | IC50 ([1]; Table 1, alkyl-TPPs) [nM] | Activity compared to that of SMX ([1]; Table 1) | binding capacity compared to that of SMX (MitoQ) [1] | IC50 (HIF1α; [5]) [nM] | Activity compared to that of SMX (HIF1α; Table 6) | SDHB and SIRT3 expression (TRAP1 inhibition) (TRAP1 [3]) | further results
COC1=C(OC)C(=O)C(C[P+](c2ccccc2)(c2ccccc2)c2ccccc2)=C(C)C1=O [MitoQ^S, ((4,5-Dimethoxy-2-methyl-3,6-dioxocyclohexa-1,4-dien-1-yl)methyl)triphenylphosphonium] | – | – | – | – | – | – | – | avascular and neovascular areas in the retina of the OIR model (OIR mice): both avascular and neovascular areas are significantly reduced; also recorded: significantly reduces both avascular and neovascular areas
COc1c(Br)c(C)c(CCCCCCCCCC[P+](c2ccccc2)(c2ccccc2)c2ccccc2)c(OC)c1OC [SB-U011, (10-(3-Bromo-4,5,6-trimethoxy-2-methylphenyl)decyl)triphenylphosphonium] | did not show a tendency that the ATPase activity decreased in a concentration-dependent manner | – | – | – | – | – | – | IC50 ([1]; Table 3, other synthetic compounds): 684 ± 72.9 nM; Activity compared to that of SMX ([1]; Table 3): 1.156; IC50 (HIF1α; Table 8, other synthetic compounds): 85.3 ± 8.8 nM; Activity compared to that of SMX (HIF1α; Table 8): 6.02
COc1cc(C)c(CCCCCCCCCC[P+](c2ccccc2)(c2ccccc2)c2ccccc2)cc1OC [SB-U015, (10-(4,5-Dimethoxy-2-methylphenyl)decyl)triphenylphosphonium] | did not show a tendency that the ATPase activity decreased in a concentration-dependent manner | – | – | – | – | – | – | IC50 ([1]; Table 4, other synthetic compounds): 1830 ± 285 nM; Activity compared to that of SMX ([1]; Table 4): 0.22; IC50 (HIF1α; MIO-M1, 24 h, Table 9, other synthetic compounds): 88.7 ± 5.8 nM; Activity compared to that of SMX (HIF1α; Table 9): 3.14; tumor size (22Rv1 cells; [4]): the tumor size became smaller; tumor weight (22Rv1 cells; [4]): the tumor weight decreased; Akt, Cdk4, and Hsp70 in tumors (western blot) (22Rv1 cells; 22Rv1 xenograft tumors): without causing changes in Akt, Cdk4, and Hsp70; SDHB, SIRT3, p-AMPK and CHOP in tumors (western blot) (22Rv1 cells; 22Rv1 xenograft tumors): decreases in SDHB and SIRT3, activated AMPK (p-AMPK), and induced the mitochondrial unfolded protein response (CHOP)
CCCCCCCCCCCCCC[P+](c1ccccc1)(c1ccccc1)c1ccccc1 [TPP-14, Tetradecyltriphenylphosphonium] | – | 384 ± 39.2 | 1.62 | superior to that of SMX | 34 ± 39.2 | 13.76 | strong effects | –
CCCCCCCCCCCCCCCC[P+](c1ccccc1)(c1ccccc1)c1ccccc1 [TPP-16, Hexadecyltriphenylphosphonium] | – | 309 ± 26 | 2.01 | superior to that of SMX; also recorded: twice as strong as that of SMX | 30 ± 26 | 15.59 | strong effects | binding capacity compared to that of SMX (MitoQ) ([1]; listed as hexadecyl-TPP): superior to that of SMX; also recorded: twice as strong as that of SMX
